Test results published in US20240226117A1, “TREATMENT OF CONGENITAL ADRENAL HYPOPLASIA” (ReveraGen BioPharma, Inc., priority 2021, published 2024).
Read-outs that look alike come from different tables or passages of the source. Blank lines part the entries; values can stand above or below the compound they belong to.

Columns and labels:
[1] = target: T1, mineralocorticoid receptor (Homo sapiens, UniProt P08235); conditions: background statement; cited from earlier work
T1 sequence (P08235 1-984): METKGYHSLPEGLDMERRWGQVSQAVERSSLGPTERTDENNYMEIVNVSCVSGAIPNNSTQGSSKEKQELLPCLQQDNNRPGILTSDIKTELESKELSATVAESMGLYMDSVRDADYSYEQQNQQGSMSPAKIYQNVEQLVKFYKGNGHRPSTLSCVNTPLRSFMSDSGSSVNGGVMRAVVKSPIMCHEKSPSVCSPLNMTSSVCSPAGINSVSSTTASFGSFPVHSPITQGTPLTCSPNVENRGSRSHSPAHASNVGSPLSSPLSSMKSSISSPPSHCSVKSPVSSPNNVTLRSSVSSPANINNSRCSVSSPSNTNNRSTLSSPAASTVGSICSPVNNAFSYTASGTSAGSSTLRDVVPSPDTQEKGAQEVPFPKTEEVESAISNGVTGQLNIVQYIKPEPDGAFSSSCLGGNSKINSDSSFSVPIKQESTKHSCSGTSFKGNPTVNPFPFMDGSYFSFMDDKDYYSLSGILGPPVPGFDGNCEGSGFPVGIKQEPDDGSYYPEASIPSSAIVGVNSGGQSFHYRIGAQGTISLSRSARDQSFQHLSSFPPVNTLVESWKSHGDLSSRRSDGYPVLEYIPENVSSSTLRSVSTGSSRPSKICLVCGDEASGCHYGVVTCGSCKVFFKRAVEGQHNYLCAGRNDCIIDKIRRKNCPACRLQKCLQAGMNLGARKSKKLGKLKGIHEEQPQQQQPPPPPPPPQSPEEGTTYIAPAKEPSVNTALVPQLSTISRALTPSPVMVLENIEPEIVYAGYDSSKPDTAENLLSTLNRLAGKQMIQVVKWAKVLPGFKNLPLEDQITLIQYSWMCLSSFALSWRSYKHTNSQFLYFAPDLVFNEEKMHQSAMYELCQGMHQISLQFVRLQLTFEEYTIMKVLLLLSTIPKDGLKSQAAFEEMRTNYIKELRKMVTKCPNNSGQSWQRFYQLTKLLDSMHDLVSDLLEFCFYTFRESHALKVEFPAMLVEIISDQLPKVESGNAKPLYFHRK

[2] = tested on: ambulant boys with DMD; experiment: VBP15-004 adverse events and behavior AESIs; conditions: PDN 0.75 mg, N = 31, 24 weeks
[3] = tested on: ambulant boys with DMD; conditions: male, human, in vivo, 24 weeks
[4] = tested on: DMD participants; experiment: Prespecified safety evaluation: height percentile for age and BMI z-score; format: in vivo, human; conditions: for Mean BMI z-score, change from baseline (SD): 0.75 mg/kg/day
Method: As with the […] comparators, group-matching criteria were prespecified in the iSAP, and 2 independent statisticians carried out the participant matching. […] There was no corresponding 12-month assessment in vamorolone-treated participants. (Assessments of vamorolone-treated trial participants were 0, 3, 6, and 18 months). Standing height and weight were assessed at each study visit. Height z-score, body mass index (BMI: kg/m^2), and BMI z-score were calculated centrally. AE reporting was done per protocol in the vamorolone trials. The current study is the first to evaluate the longer-term tolerability, efficacy, and safety of vamorolone in DMD. […] Given the variable timing of dose escalations, it was prespecified that initial analyses of drug-related efficacy and safety would be limited to those participants who had 18 months of treatment with 2.0 mg/kg/day vamorolone or more (dose group C+dose group D: n=23). Outcomes for these participants were compared to a group-matched cohort from the […] over 18 months (corticosteroid-naïve, n=19: corticosteroid-treated, n=68). Participants were matched for age and treatment period (+1 month), matching criteria were prespecified in the statistical analysis plan. Two independent statisticians carried out the matching. […] Participants in the corticosteroid-treated […] group were treated for at least 18 months, but the total duration, dose, and regimens varied. Statistical analyses were done on paired longitudinal outcome data using an analysis of covariance (ANCOVA) approach with change from baseline (VBP15-002) to month 18 (midpoint of VBP15-LTE). Baseline response and age were included as covariates. For the vamorolone-treated participants, age was calculated as (date of informed consent minus birthdate)/365.25. For the DNHS participants, age was calculated as (date of baseline visit used minus birthdate)/365.25. The baseline visit for a DNHS participant was the first visit. […] Timed function tests were analyzed as velocity scores to limit the impact of participants who could not perform the test (velocity=0). Velocity measures are variance-stabilizing transformations, suppressing extreme raw outliers from raw values in seconds; these help with distributional assumptions of the statistical models/tests used. Raw data (seconds) are also reported. Velocity scores for […] (event/second), TTRW (meters/second), and […] (event/second) were inputted as 0 at the first response missing due to inability to perform the test. All other data were observed values only, without imputation. No adjustments for multiplicity on inferential statistics were specified in the iSAP.

[5] = tested on: ambulant boys with DMD; experiment: VBP15-004 growth (height Z score); format: in vivo, human; conditions: prednisone 0.75 mg/kg/day
[6] = tested on: DMD participants; conditions: cited from earlier work
[7] = tested on: DMD subjects; conditions: cited from earlier work
[8] = CINRG prednisone trial, daily 0.75 mg/kg/day, 12 months
[9] = vamorolone 18-month treatment versus prednisone trial 12-month treatment, ANCOVA
[10] = CINRG DNHS, deflazacort n = 94, prednisone n = 80
[11] = Griggs et al. 2016, 12-month trial, 0.9 mg/kg/day deflazacort (n = 68), 0.75 mg/kg/day prednisone (n = 63)

clinically relevant psychiatric events, subjects [3]: 19.4%
moderate/severe behavior problems, subjects [3]: 22.6%
change in height Z scores from baseline to Week 24 [5]: growth deceleration
Compound: C[C@]12C=CC(=O)C=C1CC[C@@H]1[C@@H]2C(=O)C[C@@]2(C)[C@H]1CC[C@]2(O)C(=O)CO [Prednisone, prednisone, reference compound]
activity at the mineralocorticoid receptor [1]: agonists
Any Behavior AESI, moderate/severe: F (AE count) [2]: 8
incidence of behavior problems [3]: 32.3%
Mean BMI z-score, value (SD) at 12 months of treatment [4, 8]: 1.068 (1.05)
Mean height percentile for age, change from baseline (SD) [4, 8]: −3.76 (10.44)
Mean height percentile for age, value (SD) at 12 months of treatment [4, 8]: 26.14 (24.21)
Mean BMI z-score, change from baseline (SD) [4, 8]: 0.459 (0.407)
Mean BMI z-score, change from baseline (SD) ([4]; CINRG prednisone trial, daily 0.75 mg/kg/day, 12 months, listed as prednisone): 0.46
Mean BMI z-score, LS mean difference (SE) [4, 9]: 0.066 (0.193)
Mean height percentile for age, LS mean difference (SE) [4, 9]: 10.37 (3.86)

Compound: CC(=O)OCC(=O)[C@@]12N=C(C)O[C@@H]1C[C@H]1[C@@H]3CCC4=CC(=O)C=C[C@]4(C)[C@H]3[C@@H](O)C[C@@]12C [Deflazacort, deflazacort]
activity at the mineralocorticoid receptor [1]: agonists
Incidence of physician-reported Cushingoid [6, 10]: 72%
Incidence of physician-reported behavior change [6, 10]: 33%
Incidence of physician-reported weight gain [6, 10]: 63%
Incidence of physician-reported Cushingoid [6, 11]: 60.3%
Incidence of physician-reported behavior change [6, 11]: 9%
Incidence of physician-reported hypertrichosis/hirsutism [6, 11]: 35%
Incidence of physician-reported weight gain [6, 11]: 27.9%
LS Mean change in height percentiles for age ([7]; DMD children treated with deflazacort, N = 40, 12 months treatment): −11.4
change in height percentile over a 12-month treatment period ([7]; Griggs et al. 2016, DMD): −11.43 percentile
